Active and inactive are the calls of the source. The rule behind the calls is not given here.
Experiments:
Trypanosoma cruzi [1] = assay: Antitrypanosomal activity against Trypanosoma cruzi Y trymastigotes infected in monkey LLC-MK2 cells after 24 hrs by Brenner counter method in presence of beta-hydroxycopalic; assay type: functional
Trypanosoma cruzi [2] = assay: Antitrypanosomal activity against Trypanosoma cruzi Y epimastigotes after 96 hrs by neubauer chamber; assay type: functional, organism-based
Trypanosoma cruzi [3] = assay: Antitrypanosomal activity against Trypanosoma cruzi Y amastigotes infected in monkey LLC-MK2 cells after 96 hrs by Geimsa staining method; assay type: functional, organism-based; details: LLC-MK2, 96 h
Trypanosoma cruzi [4] = assay: Antitrypanosomal activity against Trypanosoma cruzi Y trymastigotes infected in monkey LLC-MK2 cells after 24 hrs by Brenner counter method; assay type: functional, organism-based; details: LLC-MK2, 24 h
Trypanosoma cruzi [5] = assay: Antitrypanosomal activity against Trypanosoma cruzi Y trymastigotes infected in monkey LLC-MK2 cells after 24 hrs by Brenner counter method in presence of copalic; assay type: functional
[6] = Toxicity in human RBC assessed as hemolysis after 3 hrs; assay type: cell-based, Erythrocyte; details: red blood cells
[7] = Cytotoxicity against monkey LLC-MK2 cells after 96 hrs by sulforhodamine B assay; assay type: cell-based, Macaca mulatta; details: rhesus monkey
[8] = Selectivity ratio of CC50 for monkey LLC-MK2 cells to IC50 for Trypanosoma cruzi Y amastigotes; assay type: ADME, cell-based; details: LLC-MK2 cells versus Trypanosoma cruzi Y amastigotes, read-out: Ratio CC50/IC50
Trypanosoma cruzi [9] = assay: Antitrypanosomal activity against Trypanosoma cruzi Y epimastigotes assessed as gated cells in lower left quadrant at 400 uM after 3 hrs by propidium iodide staining-based flow cytometric analysis (reference value: 89.35%); assay type: functional
Trypanosoma cruzi [10] = assay: Antitrypanosomal activity against Trypanosoma cruzi Y epimastigotes assessed as gated cells in lower left quadrant at 400 uM after 3 hrs by rhodamine 123 staining-based flow cytometric analysis (reference value: 2.40%); assay type: functional
Trypanosoma cruzi [11] = assay: Antitrypanosomal activity against Trypanosoma cruzi Y epimastigotes assessed as formation of concentric membranous vacuoles at compound IC50 concentration after 96 hrs by transmission electron microscopic analysis; assay type: functional, organism-based
Trypanosoma cruzi [12] = assay: Antitrypanosomal activity against Trypanosoma cruzi Y epimastigotes assessed as gated cells in upper left quadrant at 400 uM after 3 hrs by rhodamine 123 staining-based flow cytometric analysis (reference value: 1.54%); assay type: functional
Trypanosoma cruzi [13] = assay: Antitrypanosomal activity against Trypanosoma cruzi Y infected in monkey LLC-MK2 cells assessed as reduction in number of amastigotes after 96 hrs by Geimsa staining method; assay type: functional; set-up: concentration or dose not given beside the values
Trypanosoma cruzi [14] = assay: Antitrypanosomal activity against Trypanosoma cruzi Y epimastigotes assessed as lipid peroxidation at 400 uM after 6 hrs; assay type: functional
Trypanosoma cruzi [15] = assay: Antitrypanosomal activity against Trypanosoma cruzi Y epimastigotes assessed as gated cells in upper right quadrant at 400 uM after 3 hrs by rhodamine 123 staining-based flow cytometric analysis (reference value: 94.94%); assay type: functional
Trypanosoma cruzi [16] = assay: Antitrypanosomal activity against Trypanosoma cruzi Y epimastigotes assessed as kinetoplast disorganisation at compound IC50 concentration after 96 hrs by transmission electron microscopic analysis; assay type: functional, organism-based
Trypanosoma cruzi [17] = assay: Antitrypanosomal activity against Trypanosoma cruzi Y epimastigotes assessed as gated cells in upper left quadrant at 400 uM after 3 hrs by propidium iodide staining-based flow cytometric analysis (reference value: 3.76%); assay type: functional
Trypanosoma cruzi [18] = assay: Antitrypanosomal activity against Trypanosoma cruzi Y epimastigotes assessed as gated cells in lower right quadrant at 400 uM after 3 hrs by rhodamine 123 staining-based flow cytometric analysis (reference value: 1.12%); assay type: functional
Trypanosoma cruzi [19] = assay: Antitrypanosomal activity against Trypanosoma cruzi Y epimastigotes assessed as gated cells in lower right quadrant at 400 uM after 3 hrs by propidium iodide staining-based flow cytometric analysis (reference value: 5.41%); assay type: functional
Trypanosoma cruzi [20] = assay: Antitrypanosomal activity against Trypanosoma cruzi Y epimastigotes assessed as gated cells in upper right quadrant at 400 uM after 3 hrs by propidium iodide staining-based flow cytometric analysis (reference value: 1.40%); assay type: functional
Trypanosoma cruzi [21] = assay: Antitrypanosomal activity against Trypanosoma cruzi Y epimastigotes assessed as membranous vacuole formation in all body parts at compound IC50 concentration after 96 hrs by transmission electron microscopic analysis; assay type: functional, organism-based
Trypanosoma cruzi [22] = assay: Antitrypanosomal activity against Trypanosoma cruzi Y epimastigotes assessed as organelle disorganization at compound IC50 concentration after 96 hrs by transmission electron microscopic analysis; assay type: functional, organism-based
Trypanosoma cruzi [23] = assay: Antitrypanosomal activity against Trypanosoma cruzi Y epimastigotes assessed as pronounced swelling of mitochondria at compound IC50 concentration after 96 hrs by transmission electron microscopic analysis; assay type: functional, organism-based
[24] = Toxicity in human RBC assessed as hemolysis at 1552 uM after 3 hrs; assay type: cell-based, Erythrocyte; details: red blood cells, read-out: Activity

SMILES | IC50 (Trypanosoma cruzi [2]) [µM] | IC50 (Trypanosoma cruzi [3]) [µM] | EC50 (Trypanosoma cruzi [4]) [µM] | HC50 at 3 h [6] [µM] | CC50 at 96 h [7] [µM] | selectivity ratio [8] | Activity (Trypanosoma cruzi [9]) [%] | Activity (Trypanosoma cruzi [10]) [%] | Activity (Trypanosoma cruzi [12]) [%] | Activity (Trypanosoma cruzi [13]) [%] | Activity (Trypanosoma cruzi [14]) | Activity (Trypanosoma cruzi [15]) [%] | Activity (Trypanosoma cruzi [17]) [%] | Activity (Trypanosoma cruzi [18]) [%] | Activity (Trypanosoma cruzi [19]) [%] | Activity (Trypanosoma cruzi [20]) [%] | further results
O=C(Cn1ccnc1[N+](=O)[O-])NCc1ccccc1 [BENZNIDAZOLE] | 6.5 | 19.2 | 34.5 | > 1920 | 615 | 32 | – | – | – | – | – | – | – | – | – | – | fractional inhibitory concentration index (FICI) (Trypanosoma cruzi [1]): 1.01; fractional inhibitory concentration index (FICI) (Trypanosoma cruzi [5]): 0.95
C=C1CC/C=C(\C)CC[C@@H]2[C@@H]1CC2(C)C [BETA-CARYOPHYLLENE] | 78.4 | 63.7 | 1590 | > 2450 | 1720 | 26.9 | 9.53 | 52.01 | 3.17 | 25 | 30% | 29.35 | 78.81 | 15.47 | 0.26 | 11.4 | Activity (Trypanosoma cruzi [11]): Active; fractional inhibitory concentration index (FICI) (Trypanosoma cruzi [1]): 0.86; fractional inhibitory concentration index (FICI) (Trypanosoma cruzi [5]): 0.12; Activity (Trypanosoma cruzi [16]): Active
C=C1CC[C@@H]2C(C)(C)CCC[C@@]2(C)[C@@H]1CC/C(C)=C/C(=O)OC [METHYL COPALATE] | 83.3 | 2.5 | 377 | 1600 | 69.1 | 27.6 | 85.91 | 0.66 | 0.64 | 38 | inactive | 98.49 | 2.62 | 0.21 | 9.22 | 2.25 | –
C=C1CC[C@@H]2C(C)(C)[C@@H](O)CC[C@@]2(C)[C@@H]1CC/C(C)=C/C(=O)O | 41.2 | 1.8 | 453 | 125 | 31.2 | 17.3 | 2.56 | 2.27 | 24.06 | 40 | inactive | 73.66 | 73 | 0.01 | 0.15 | 24.29 | Activity (Trypanosoma cruzi [21]): Active; Activity (Trypanosoma cruzi [22]): Active
C=C1CC[C@@H]2C(C)(C)CCC[C@@]2(C)[C@@H]1CC/C(C)=C/C(=O)O [COPALIC ACID] | 42.7 | 1.3 | 444 | 65.7 | 39.4 | 30.3 | 5.17 | 2.86 | 24.47 | 48 | 30% | 72.57 | 43.58 | 0.1 | 0.71 | 50.54 | Activity (Trypanosoma cruzi [23]): Active
C=C1CC[C@@H]2[C@](C)(CCC[C@@]2(C)C(=O)O)[C@H]1CC[C@H](C)CC(=O)O [PINIFOLIC ACID] | 854 | 18.6 | 1630 | > 1550 | 252 | 13.5 | 91.66 | 1.02 | 0.81 | 25 | inactive | 97.96 | 3.78 | 0.21 | 3.85 | 0.71 | hemolysis at 3 h, 1552 µM [24]: 8%
C=C1CC[C@@H]2[C@](C)(CCC[C@@]2(C)C(=O)O)[C@H]1CCc1ccoc1 [POLYALTIC ACID] | 168 | 28.4 | 965 | > 1580 | 60.1 | 2.1 | 26.71 | 1.85 | 1.28 | 38 | inactive | 95.96 | 16.7 | 0.91 | 25.8 | 29.09 | –
C=C1C[C@@]23CC[C@H]4[C@@](C)(CCC[C@@]4(C)C(=O)O)[C@@H]2CC[C@@H]1C3 [KAURENOIC ACID] | 167 | 16.5 | 596 | 464 | 76.1 | 4.6 | 22.65 | 4.85 | 2.55 | 38 | inactive | 91.64 | 45.55 | 0.96 | 13.27 | 18.53 | –
C[C@@H]1[C@H](O)[C@@H](C)/C=C/C=C/C=C/C=C/C=C/C=C/C=C/[C@H](O[C@@H]2O[C@H](C)[C@@H](O)[C@H](N)[C@@H]2O)C[C@@H]2O[C@](O)(C[C@@H](O)C[C@@H](O)[C@H](O)CC[C@@H](O)C[C@@H](O)CC(=O)O[C@H]1C)C[C@H](O)[C@H]2C(=O)O [AMPHOTERICIN B] | – | – | – | 50.8 | – | – | – | – | – | – | – | – | – | – | – | – | –
C=C1CC[C@@H]2[C@](C)(CCC[C@]2(C)C(=O)O)[C@H]1CC/C(C)=C/C(=O)O [AGATHIC ACID] | 86.8 | 14.9 | 823 | 1050 | 56.8 | 3.8 | 14.2 | 2.07 | 13.37 | 38 | inactive | 84.11 | 50.32 | 0.45 | 2.51 | 32.97 | –
